According to article PMC11167047 (Cell Death Discovery, 2024):

How the values were obtained:
Test in all cases: kinome screen (33PanQinase)
Format in all cases: biochemical
BUB1B = target: T1, BUB1B (Homo sapiens, UniProt O60566)
T1 construct: purchased Reaction Biology Europe GmbH (formerly ProQinase)
Procedure: (§1) The Kinome Screening was performed by Reaction Biology Europe GmbH (http://reactionbiology.com; Freiburg i. Br., Germany).

CAMKK2 = target: T2, CAMKK2 (Homo sapiens, UniProt Q96RR4)
T2 construct: purchased Reaction Biology Europe GmbH (formerly ProQinase)
Procedure: as §1

CDC42BPB = target: T3, CDC42BPB (Homo sapiens, UniProt Q9Y5S2)
T3 construct: purchased Reaction Biology Europe GmbH (formerly ProQinase)
Procedure: as §1

CDK6/CycD2 = target: T4, CDK6/CycD2 (Homo sapiens, UniProt Q00534)
T4 construct: purchased Reaction Biology Europe GmbH (formerly ProQinase)
Procedure: as §1

DYRK3 = target: T5, DYRK3 (Homo sapiens, UniProt O43781)
T5 construct: purchased Reaction Biology Europe GmbH (formerly ProQinase)
T5 sequence (O43781 1-588): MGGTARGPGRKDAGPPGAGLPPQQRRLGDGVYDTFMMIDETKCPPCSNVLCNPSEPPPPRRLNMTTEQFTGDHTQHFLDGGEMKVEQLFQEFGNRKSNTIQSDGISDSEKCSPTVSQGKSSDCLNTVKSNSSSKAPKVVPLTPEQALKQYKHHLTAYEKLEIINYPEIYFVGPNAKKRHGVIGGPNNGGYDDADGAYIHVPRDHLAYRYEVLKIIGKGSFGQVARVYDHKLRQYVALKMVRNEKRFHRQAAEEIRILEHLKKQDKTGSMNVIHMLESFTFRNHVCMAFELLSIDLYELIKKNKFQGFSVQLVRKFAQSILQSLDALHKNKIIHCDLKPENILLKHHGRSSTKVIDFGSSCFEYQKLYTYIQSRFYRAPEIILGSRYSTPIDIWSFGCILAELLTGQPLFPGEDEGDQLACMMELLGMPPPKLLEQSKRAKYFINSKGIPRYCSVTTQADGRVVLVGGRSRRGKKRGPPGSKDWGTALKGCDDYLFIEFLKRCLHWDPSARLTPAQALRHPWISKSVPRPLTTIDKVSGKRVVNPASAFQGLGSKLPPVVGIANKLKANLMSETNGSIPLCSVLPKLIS
Procedure: as §1

ERK1 = target: T6, ERK1 (Homo sapiens, UniProt P27361)
T6 construct: purchased Reaction Biology Europe GmbH (formerly ProQinase)
T6 sequence (P27361 whole entry): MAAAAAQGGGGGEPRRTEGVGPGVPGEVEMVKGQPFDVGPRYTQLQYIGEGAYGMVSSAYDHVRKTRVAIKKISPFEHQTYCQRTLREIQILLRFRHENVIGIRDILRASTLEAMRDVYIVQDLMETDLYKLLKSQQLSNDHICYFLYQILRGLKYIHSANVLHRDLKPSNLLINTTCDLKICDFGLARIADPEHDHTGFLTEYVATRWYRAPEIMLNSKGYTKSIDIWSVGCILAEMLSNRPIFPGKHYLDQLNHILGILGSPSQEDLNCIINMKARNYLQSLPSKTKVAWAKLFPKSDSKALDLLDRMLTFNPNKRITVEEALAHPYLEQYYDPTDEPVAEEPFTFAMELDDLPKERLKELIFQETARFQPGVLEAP
Procedure: as §1

FGFR4 = target: T7, FGFR4 (Homo sapiens, UniProt P22455)
T7 construct: purchased Reaction Biology Europe GmbH (formerly ProQinase)
Procedure: as §1

LCK = target: T8, LCK (Homo sapiens, UniProt P06239)
T8 construct: purchased Reaction Biology Europe GmbH (formerly ProQinase)
T8 sequence (P06239 whole entry): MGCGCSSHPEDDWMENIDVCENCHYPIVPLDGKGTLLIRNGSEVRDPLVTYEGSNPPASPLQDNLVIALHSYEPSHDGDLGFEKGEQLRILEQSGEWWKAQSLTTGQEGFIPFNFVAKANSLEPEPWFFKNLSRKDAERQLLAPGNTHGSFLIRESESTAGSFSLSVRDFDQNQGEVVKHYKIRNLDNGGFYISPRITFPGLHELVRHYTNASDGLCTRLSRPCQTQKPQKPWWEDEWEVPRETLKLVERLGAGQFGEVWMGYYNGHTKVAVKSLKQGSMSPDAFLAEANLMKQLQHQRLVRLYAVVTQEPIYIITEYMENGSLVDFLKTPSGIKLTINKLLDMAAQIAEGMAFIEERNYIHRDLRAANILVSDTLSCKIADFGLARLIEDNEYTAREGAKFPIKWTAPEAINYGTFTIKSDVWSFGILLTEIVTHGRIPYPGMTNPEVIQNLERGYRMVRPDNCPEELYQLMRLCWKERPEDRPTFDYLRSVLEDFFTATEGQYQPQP
Procedure: as §1

MLK4 = target: T9, MLK4 (Homo sapiens, UniProt Q5TCX8)
T9 construct: purchased Reaction Biology Europe GmbH (formerly ProQinase)
T9 sequence (Q5TCX8 whole entry): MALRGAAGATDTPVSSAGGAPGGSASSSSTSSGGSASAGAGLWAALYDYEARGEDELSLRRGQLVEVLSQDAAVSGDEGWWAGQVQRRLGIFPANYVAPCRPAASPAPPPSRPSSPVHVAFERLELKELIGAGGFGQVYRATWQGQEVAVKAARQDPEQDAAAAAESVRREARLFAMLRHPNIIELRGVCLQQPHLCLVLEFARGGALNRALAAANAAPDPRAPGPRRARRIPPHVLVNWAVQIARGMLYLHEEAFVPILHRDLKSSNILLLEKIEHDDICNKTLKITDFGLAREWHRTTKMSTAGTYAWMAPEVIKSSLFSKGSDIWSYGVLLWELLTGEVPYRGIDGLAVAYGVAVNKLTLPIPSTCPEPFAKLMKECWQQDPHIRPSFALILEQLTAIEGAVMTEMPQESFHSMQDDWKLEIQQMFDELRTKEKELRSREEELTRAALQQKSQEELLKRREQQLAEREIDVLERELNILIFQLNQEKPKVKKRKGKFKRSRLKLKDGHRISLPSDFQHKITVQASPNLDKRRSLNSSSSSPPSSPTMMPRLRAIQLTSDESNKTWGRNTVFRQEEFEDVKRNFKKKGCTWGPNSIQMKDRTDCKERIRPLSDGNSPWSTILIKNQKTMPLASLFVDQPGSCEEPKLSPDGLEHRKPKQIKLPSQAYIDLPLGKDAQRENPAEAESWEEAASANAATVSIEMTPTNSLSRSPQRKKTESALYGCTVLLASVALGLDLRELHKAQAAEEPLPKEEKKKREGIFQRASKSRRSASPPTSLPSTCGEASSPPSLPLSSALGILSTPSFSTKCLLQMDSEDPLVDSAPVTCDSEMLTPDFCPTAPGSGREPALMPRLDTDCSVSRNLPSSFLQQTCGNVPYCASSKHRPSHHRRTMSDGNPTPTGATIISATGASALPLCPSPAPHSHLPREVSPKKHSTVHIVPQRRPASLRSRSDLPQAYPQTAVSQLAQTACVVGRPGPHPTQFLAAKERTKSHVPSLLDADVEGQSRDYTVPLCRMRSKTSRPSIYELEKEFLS
Procedure: as §1

RIPK2 = target: T10, RIPK2 (Homo sapiens, UniProt O43353)
T10 construct: purchased Reaction Biology Europe GmbH (formerly ProQinase)
T10 sequence (O43353 whole entry): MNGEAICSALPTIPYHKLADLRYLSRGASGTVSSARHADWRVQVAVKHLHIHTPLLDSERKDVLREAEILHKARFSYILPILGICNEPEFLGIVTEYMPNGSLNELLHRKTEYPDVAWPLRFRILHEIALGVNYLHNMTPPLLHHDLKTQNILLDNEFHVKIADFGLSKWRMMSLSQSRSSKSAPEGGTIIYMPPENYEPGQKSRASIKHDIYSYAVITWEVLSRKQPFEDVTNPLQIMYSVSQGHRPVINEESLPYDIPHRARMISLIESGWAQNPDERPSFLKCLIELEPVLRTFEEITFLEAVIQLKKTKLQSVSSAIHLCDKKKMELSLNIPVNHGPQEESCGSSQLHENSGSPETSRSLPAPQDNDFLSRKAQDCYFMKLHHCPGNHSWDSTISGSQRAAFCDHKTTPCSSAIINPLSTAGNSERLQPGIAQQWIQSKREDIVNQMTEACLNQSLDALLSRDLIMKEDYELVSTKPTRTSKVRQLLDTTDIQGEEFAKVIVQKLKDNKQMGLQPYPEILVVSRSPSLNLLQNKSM
Procedure: as §1

ROS = target: T11, ROS (Homo sapiens, UniProt P08922)
T11 construct: purchased Reaction Biology Europe GmbH (formerly ProQinase)
T11 sequence (P08922 28-2347): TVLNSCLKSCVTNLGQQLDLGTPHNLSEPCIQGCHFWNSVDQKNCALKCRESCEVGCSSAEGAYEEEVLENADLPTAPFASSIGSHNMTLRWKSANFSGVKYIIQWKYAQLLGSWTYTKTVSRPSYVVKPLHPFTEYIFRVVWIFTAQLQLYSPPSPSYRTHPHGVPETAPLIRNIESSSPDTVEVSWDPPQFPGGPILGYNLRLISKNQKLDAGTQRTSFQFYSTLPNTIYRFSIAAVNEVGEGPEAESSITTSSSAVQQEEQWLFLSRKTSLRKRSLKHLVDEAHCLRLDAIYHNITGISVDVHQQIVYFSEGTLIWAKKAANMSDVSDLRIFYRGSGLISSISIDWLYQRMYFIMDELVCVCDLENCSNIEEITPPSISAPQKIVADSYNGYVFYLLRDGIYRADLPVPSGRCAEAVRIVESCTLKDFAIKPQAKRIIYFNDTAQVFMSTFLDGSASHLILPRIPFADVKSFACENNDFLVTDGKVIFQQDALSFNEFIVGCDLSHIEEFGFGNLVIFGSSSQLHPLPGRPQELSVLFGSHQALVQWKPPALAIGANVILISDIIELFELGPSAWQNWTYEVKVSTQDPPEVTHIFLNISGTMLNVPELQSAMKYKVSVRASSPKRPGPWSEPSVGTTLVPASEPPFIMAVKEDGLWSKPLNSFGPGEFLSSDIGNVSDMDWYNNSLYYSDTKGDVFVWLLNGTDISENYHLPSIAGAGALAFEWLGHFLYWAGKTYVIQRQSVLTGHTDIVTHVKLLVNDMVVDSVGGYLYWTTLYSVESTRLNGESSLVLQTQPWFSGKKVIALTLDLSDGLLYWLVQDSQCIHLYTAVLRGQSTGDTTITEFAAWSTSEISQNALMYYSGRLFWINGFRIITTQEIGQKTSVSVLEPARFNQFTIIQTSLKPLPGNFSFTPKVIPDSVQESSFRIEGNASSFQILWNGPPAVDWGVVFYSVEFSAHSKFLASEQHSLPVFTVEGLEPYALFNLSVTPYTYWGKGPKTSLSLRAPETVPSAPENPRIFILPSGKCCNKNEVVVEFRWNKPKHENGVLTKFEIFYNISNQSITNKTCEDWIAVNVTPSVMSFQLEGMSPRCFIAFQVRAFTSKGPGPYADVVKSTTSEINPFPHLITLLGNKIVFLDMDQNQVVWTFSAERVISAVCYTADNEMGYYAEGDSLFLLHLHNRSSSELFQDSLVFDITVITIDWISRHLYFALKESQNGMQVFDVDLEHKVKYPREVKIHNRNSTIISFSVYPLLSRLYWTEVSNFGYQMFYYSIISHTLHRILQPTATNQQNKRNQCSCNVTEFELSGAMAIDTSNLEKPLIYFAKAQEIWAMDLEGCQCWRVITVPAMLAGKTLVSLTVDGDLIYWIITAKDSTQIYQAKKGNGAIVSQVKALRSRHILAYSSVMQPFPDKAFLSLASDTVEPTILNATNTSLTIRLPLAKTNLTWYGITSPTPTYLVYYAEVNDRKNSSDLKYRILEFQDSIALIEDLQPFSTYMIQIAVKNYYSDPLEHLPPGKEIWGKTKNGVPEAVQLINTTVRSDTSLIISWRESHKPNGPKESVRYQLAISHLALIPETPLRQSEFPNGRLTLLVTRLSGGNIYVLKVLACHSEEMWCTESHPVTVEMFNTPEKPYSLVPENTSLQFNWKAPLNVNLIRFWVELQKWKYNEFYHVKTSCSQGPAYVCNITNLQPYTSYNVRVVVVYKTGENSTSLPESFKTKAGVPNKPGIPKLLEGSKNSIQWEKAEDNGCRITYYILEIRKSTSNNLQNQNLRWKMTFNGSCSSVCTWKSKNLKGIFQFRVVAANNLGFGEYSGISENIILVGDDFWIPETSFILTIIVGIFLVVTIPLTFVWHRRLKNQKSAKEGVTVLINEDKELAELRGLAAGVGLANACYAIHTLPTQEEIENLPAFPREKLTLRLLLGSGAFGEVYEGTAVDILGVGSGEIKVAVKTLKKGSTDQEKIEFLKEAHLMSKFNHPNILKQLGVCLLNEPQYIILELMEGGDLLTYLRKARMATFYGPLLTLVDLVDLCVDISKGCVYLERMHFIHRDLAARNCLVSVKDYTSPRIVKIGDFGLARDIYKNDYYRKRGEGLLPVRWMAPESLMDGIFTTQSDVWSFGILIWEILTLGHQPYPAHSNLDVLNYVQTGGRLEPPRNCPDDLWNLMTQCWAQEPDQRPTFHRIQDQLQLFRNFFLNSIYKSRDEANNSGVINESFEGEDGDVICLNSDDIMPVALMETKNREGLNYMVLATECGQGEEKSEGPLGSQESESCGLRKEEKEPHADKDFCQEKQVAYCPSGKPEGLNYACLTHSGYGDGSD
Procedure: as §1

RPS6KA4 = target: T12, RPS6KA4 (Homo sapiens, UniProt O75676)
T12 construct: purchased Reaction Biology Europe GmbH (formerly ProQinase)
Procedure: as §1

TXK = target: T13, TXK (Homo sapiens, UniProt P42681)
T13 construct: purchased Reaction Biology Europe GmbH (formerly ProQinase)
T13 sequence (P42681 1-527): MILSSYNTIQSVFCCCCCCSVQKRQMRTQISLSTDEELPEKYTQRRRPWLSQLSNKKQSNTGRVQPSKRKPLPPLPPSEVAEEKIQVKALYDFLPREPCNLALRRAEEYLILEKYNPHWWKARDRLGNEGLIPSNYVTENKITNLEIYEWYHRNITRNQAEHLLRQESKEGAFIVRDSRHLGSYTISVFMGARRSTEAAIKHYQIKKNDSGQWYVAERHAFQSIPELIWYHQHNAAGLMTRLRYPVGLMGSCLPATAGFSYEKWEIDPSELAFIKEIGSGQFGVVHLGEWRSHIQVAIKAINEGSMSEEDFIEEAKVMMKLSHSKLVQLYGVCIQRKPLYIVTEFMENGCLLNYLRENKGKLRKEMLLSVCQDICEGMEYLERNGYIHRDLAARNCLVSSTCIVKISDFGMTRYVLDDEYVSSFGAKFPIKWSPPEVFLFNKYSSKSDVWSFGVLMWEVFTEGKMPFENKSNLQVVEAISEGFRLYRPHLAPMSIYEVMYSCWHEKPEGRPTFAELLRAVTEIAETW
Procedure: as §1

Compound | residual kinase activity (BUB1B; 0.3 µM) | residual kinase activity (CAMKK2; 0.3 µM) | residual kinase activity (CDC42BPB; 0.3 µM) | residual kinase activity (CDK6/CycD2; 0.3 µM) | residual kinase activity (DYRK3; 0.3 µM) | residual kinase activity (ERK1; 0.3 µM) | residual kinase activity (FGFR4; 0.3 µM) | residual kinase activity (LCK; 0.3 µM) | residual kinase activity (MLK4; 0.3 µM) | residual kinase activity (RIPK2; 0.3 µM) | residual kinase activity (ROS; 0.3 µM) | residual kinase activity (RPS6KA4; 0.3 µM) | residual kinase activity (TXK; 0.3 µM) | also measured
c1ccc(CNc2cc(-c3c[nH]c4ncccc34)ccn2)cc1 [meriolin 36] | 89 % of control | 9 % of control | 0 % of control | 47 % of control | 59 % of control | 72 % of control | 98 % of control | 61 % of control | 73 % of control | 61 % of control | 26 % of control | 71 % of control | 84 % of control | residual kinase activity (BUB1B; 3 µM): 73 % of control; residual kinase activity (CAMKK2; 3 µM): 1 % of control; residual kinase activity (CDC42BPB; 3 µM): 0 % of control; residual kinase activity (CDK6/CycD2; 3 µM): 10 % of control; residual kinase activity (DYRK3; 3 µM): 14 % of control; residual kinase activity (ERK1; 3 µM): 37 % of control; residual kinase activity (FGFR4; 3 µM): 58 % of control; residual kinase activity (LCK; 3 µM): 18 % of control; residual kinase activity (MLK4; 3 µM): 40 % of control; residual kinase activity (RIPK2; 3 µM): 33 % of control; residual kinase activity (ROS; 3 µM): 5 % of control; residual kinase activity (RPS6KA4; 3 µM): 29 % of control; residual kinase activity (TXK; 3 µM): 35 % of control
COc1ccnc2[nH]cc(-c3cc(N)nc(N)c3)c12 [meriolin 16] | 81 % of control | 55 % of control | 2 % of control | 76 % of control | 2 % of control | 96 % of control | 87 % of control | 91 % of control | 75 % of control | 78 % of control | 81 % of control | 89 % of control | 90 % of control | residual kinase activity (BUB1B; 0.03 µM): 88 % of control; residual kinase activity (CAMKK2; 0.03 µM): 92 % of control; residual kinase activity (CDC42BPB; 0.03 µM): 37 % of control; residual kinase activity (CDK6/CycD2; 0.03 µM): 93 % of control; residual kinase activity (DYRK3; 0.03 µM): 27 % of control; residual kinase activity (ERK1; 0.03 µM): 111 % of control; residual kinase activity (FGFR4; 0.03 µM): 91 % of control; residual kinase activity (LCK; 0.03 µM): 87 % of control; residual kinase activity (MLK4; 0.03 µM): 105 % of control; residual kinase activity (RIPK2; 0.03 µM): 95 % of control; residual kinase activity (ROS; 0.03 µM): 92 % of control; residual kinase activity (RPS6KA4; 0.03 µM): 90 % of control; residual kinase activity (TXK; 0.03 µM): 100 % of control
